Blank lines part the entries; values can stand above or below the compound they belong to.
Tested on: 252836-082-R-J2-PDC tumor spheroids, viability
Assay: Anticancer human tumor 252836-082-R-J2-PDC patient-derived head and neck squamous cell carcinoma cell line growth inhibition [PI3K]
Settings: spheroids with HUVEC and MSC; for IC50: curve of first compound; for viability, T/C: stronger effect = lower value
In short: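 Stroma-containing spheroids: tumor line, pooled-donor HUVEC, hMSC. Treatments: targeted agents with PI3K inhibitors. Dosing: clinically relevant, half-log spacing, 10 microM ceiling without known Cmax. Read-out: cell viability.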

[1] = second compound 0.0316 µM, first compound 0.0316 µM
[2] = second compound 0.0316 µM, first compound 0.1 µM
[3] = second compound 0.0316 µM, first compound 0.316 µM
[4] = second compound 0.0316 µM, first compound 1 µM
[5] = second compound 0.0316 µM, first compound 3.16 µM
[6] = second compound 0.0316 µM, first compound 10 µM
[7] = second compound 0.1 µM, first compound 0.0316 µM
[8] = second compound 0.1 µM, first compound 0.1 µM
[9] = second compound 0.1 µM, first compound 0.316 µM
[10] = second compound 0.1 µM, first compound 1 µM
[11] = second compound 0.1 µM, first compound 3.16 µM
[12] = second compound 0.1 µM, first compound 10 µM
[13] = second compound 0.316 µM, first compound 0.0316 µM
[14] = second compound 0.316 µM, first compound 0.1 µM
[15] = second compound 0.316 µM, first compound 0.316 µM
[16] = second compound 0.316 µM, first compound 1 µM
[17] = second compound 0.316 µM, first compound 3.16 µM
[18] = second compound 0.316 µM, first compound 10 µM
[19] = second compound 1 µM, first compound 0.0316 µM
[20] = second compound 1 µM, first compound 0.1 µM
[21] = second compound 1 µM, first compound 0.316 µM
[22] = second compound 1 µM, first compound 1 µM
[23] = second compound 1 µM, first compound 3.16 µM
[24] = second compound 1 µM, first compound 10 µM
[25] = second compound 3.16 µM, first compound 0.0316 µM
[26] = second compound 3.16 µM, first compound 0.1 µM
[27] = second compound 3.16 µM, first compound 0.316 µM
[28] = second compound 3.16 µM, first compound 1 µM
[29] = second compound 3.16 µM, first compound 3.16 µM
[30] = second compound 3.16 µM, first compound 10 µM
[31] = second compound 10 µM, first compound 0.0316 µM
[32] = second compound 10 µM, first compound 0.1 µM
[33] = second compound 10 µM, first compound 0.316 µM
[34] = second compound 10 µM, first compound 1 µM
[35] = second compound 10 µM, first compound 3.16 µM
[36] = second compound 10 µM, first compound 10 µM
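Also: spheroids exposed to agents for seven days before readout.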
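For viability, T/C in this document: percent of vehicle DMSO control viability so 100% = untreated growth.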

IC50 (second compound 0.0316 µM): 1150 nM | IC50 (second compound 0.1 µM): 1100 nM | IC50 (second compound 0.316 µM): 991 nM | IC50 (second compound 1 µM): 980 nM | IC50 (second compound 3.16 µM): 916 nM | IC50 (second compound 10 µM): 742 nM
SMILES: CC(C)NCC(C(=O)N1CCN(c2ncnc3c2C(C)CC3O)CC1)c1ccc(Cl)cc1 (stereo not drawn) + CC(Nc1ncnc2nc[nH]c12)c1cc2cccc(Cl)c2c(=O)n1-c1ccccc1
viability, T/C [1]: 99.4% | viability, T/C [2]: 89.4% | viability, T/C [3]: 76.7% | viability, T/C [4]: 54.5% | viability, T/C [5]: 28.6% | viability, T/C [6]: 22.1% | viability, T/C [7]: 97.9% | viability, T/C [8]: 81.1% | viability, T/C [9]: 77.4% | viability, T/C [10]: 49% | viability, T/C [11]: 33.2% | viability, T/C [12]: 21.7% | viability, T/C [13]: 83.3% | viability, T/C [14]: 83.1% | viability, T/C [15]: 85% | viability, T/C [16]: 48.3% | viability, T/C [17]: 38.1% | viability, T/C [18]: 20.7% | viability, T/C [19]: 95.4% | viability, T/C [20]: 98.1% | viability, T/C [21]: 65.3% | viability, T/C [22]: 51.5% | viability, T/C [23]: 33.6% | viability, T/C [24]: 20.5% | viability, T/C [25]: 75.7% | viability, T/C [26]: 74.9% | viability, T/C [27]: 75% | viability, T/C [28]: 46.5% | viability, T/C [29]: 35.4% | viability, T/C [30]: 24.2% | viability, T/C [31]: 71.3% | viability, T/C [32]: 69.2% | viability, T/C [33]: 59.6% | viability, T/C [34]: 46.3% | viability, T/C [35]: 30.4% | viability, T/C [36]: 16.6%

IC50 (second compound 0.0316 µM): > 10000 nM | IC50 (second compound 0.1 µM): > 10000 nM | IC50 (second compound 0.316 µM): > 10000 nM | IC50 (second compound 1 µM): > 10000 nM | IC50 (second compound 3.16 µM): > 10000 nM | IC50 (second compound 10 µM): > 10000 nM
SMILES: CC1(C)CCC(CN2CCN(c3ccc(C(=O)NS(=O)(=O)c4ccc(NCC5CCOCC5)c([N+](=O)[O-])c4)c(Oc4cnc5[nH]ccc5c4)c3)CC2)=C(c2ccc(Cl)cc2)C1 + CC(Nc1ncnc2nc[nH]c12)c1cc2cccc(Cl)c2c(=O)n1-c1ccccc1
viability, T/C [1]: 96.7% | viability, T/C [2]: 88.3% | viability, T/C [3]: 95.9% | viability, T/C [4]: 93% | viability, T/C [5]: 87.3% | viability, T/C [6]: 81.8% | viability, T/C [7]: 102% | viability, T/C [8]: 77.1% | viability, T/C [9]: 79% | viability, T/C [10]: 99.1% | viability, T/C [11]: 80.8% | viability, T/C [12]: 86.7% | viability, T/C [13]: 92.5% | viability, T/C [14]: 100% | viability, T/C [15]: 102% | viability, T/C [16]: 106% | viability, T/C [17]: 88.3% | viability, T/C [18]: 81.6% | viability, T/C [19]: 81% | viability, T/C [20]: 89.8% | viability, T/C [21]: 77.5% | viability, T/C [22]: 93.8% | viability, T/C [23]: 92.1% | viability, T/C [24]: 96% | viability, T/C [25]: 80.5% | viability, T/C [26]: 84% | viability, T/C [27]: 71.8% | viability, T/C [28]: 81.2% | viability, T/C [29]: 67% | viability, T/C [30]: 65.7% | viability, T/C [31]: 61% | viability, T/C [32]: 64.3% | viability, T/C [33]: 68.6% | viability, T/C [34]: 65.8% | viability, T/C [35]: 50.4% | viability, T/C [36]: 55.1%

IC50 (second compound 0.0316 µM): > 10000 nM | IC50 (second compound 0.1 µM): > 10000 nM | IC50 (second compound 0.316 µM): > 10000 nM | IC50 (second compound 1 µM): > 10000 nM | IC50 (second compound 3.16 µM): > 10000 nM | IC50 (second compound 10 µM): > 10000 nM
SMILES: C[C@@H](NC(=O)c1ncnc(N)c1Cl)c1ncc(C(=O)Nc2cc(C(F)(F)F)c(Cl)cn2)s1 + CC(Nc1ncnc2nc[nH]c12)c1cc2cccc(Cl)c2c(=O)n1-c1ccccc1
viability, T/C [1]: 109% | viability, T/C [2]: 97.1% | viability, T/C [3]: 100% | viability, T/C [4]: 105% | viability, T/C [5]: 103% | viability, T/C [6]: 74% | viability, T/C [7]: 96.3% | viability, T/C [8]: 94.7% | viability, T/C [9]: 86.7% | viability, T/C [10]: 92.1% | viability, T/C [11]: 94.5% | viability, T/C [12]: 82.3% | viability, T/C [13]: 90.1% | viability, T/C [14]: 89.7% | viability, T/C [15]: 98.5% | viability, T/C [16]: 99.4% | viability, T/C [17]: 94.3% | viability, T/C [18]: 86.5% | viability, T/C [19]: 96.8% | viability, T/C [20]: 89.9% | viability, T/C [21]: 90.7% | viability, T/C [22]: 92.7% | viability, T/C [23]: 97.8% | viability, T/C [24]: 88.6% | viability, T/C [25]: 73.5% | viability, T/C [26]: 84.5% | viability, T/C [27]: 89.5% | viability, T/C [28]: 93.1% | viability, T/C [29]: 72.7% | viability, T/C [30]: 70.1% | viability, T/C [31]: 70.8% | viability, T/C [32]: 69% | viability, T/C [33]: 55.5% | viability, T/C [34]: 64.5% | viability, T/C [35]: 72.1% | viability, T/C [36]: 65.4%

IC50 (second compound 0.0316 µM): > 100 nM | IC50 (second compound 0.1 µM): > 100 nM | IC50 (second compound 0.316 µM): > 100 nM | IC50 (second compound 1 µM): > 100 nM | IC50 (second compound 3.16 µM): 90.3 nM | IC50 (second compound 10 µM): 23.1 nM
SMILES: Cn1ncnc1[C@H]1c2n[nH]c(=O)c3cc(F)cc(c23)N[C@@H]1c1ccc(F)cc1 + CC(Nc1ncnc2nc[nH]c12)c1cc2cccc(Cl)c2c(=O)n1-c1ccccc1
viability, T/C (second compound 0.0316 µM, first compound 0.000316 µM): 95.5% | viability, T/C (second compound 0.0316 µM, first compound 0.001 µM): 79.7% | viability, T/C (second compound 0.0316 µM, first compound 0.00316 µM): 94% | viability, T/C (second compound 0.0316 µM, first compound 0.01 µM): 94.4% | viability, T/C [1]: 79.6% | viability, T/C [2]: 58.8% | viability, T/C (second compound 0.1 µM, first compound 0.000316 µM): 94.3% | viability, T/C (second compound 0.1 µM, first compound 0.001 µM): 82.6% | viability, T/C (second compound 0.1 µM, first compound 0.00316 µM): 79.3% | viability, T/C (second compound 0.1 µM, first compound 0.01 µM): 87.6% | viability, T/C [7]: 79.1% | viability, T/C [8]: 51.9% | viability, T/C (second compound 0.316 µM, first compound 0.000316 µM): 97.5% | viability, T/C (second compound 0.316 µM, first compound 0.001 µM): 84% | viability, T/C (second compound 0.316 µM, first compound 0.00316 µM): 79.5% | viability, T/C (second compound 0.316 µM, first compound 0.01 µM): 80% | viability, T/C [13]: 76.9% | viability, T/C [14]: 57.8% | viability, T/C (second compound 1 µM, first compound 0.000316 µM): 84.8% | viability, T/C (second compound 1 µM, first compound 0.001 µM): 97.9% | viability, T/C (second compound 1 µM, first compound 0.00316 µM): 77.4% | viability, T/C (second compound 1 µM, first compound 0.01 µM): 81.5% | viability, T/C [19]: 68.3% | viability, T/C [20]: 57.9% | viability, T/C (second compound 3.16 µM, first compound 0.000316 µM): 71.5% | viability, T/C (second compound 3.16 µM, first compound 0.001 µM): 85.4% | viability, T/C (second compound 3.16 µM, first compound 0.00316 µM): 82.8% | viability, T/C (second compound 3.16 µM, first compound 0.01 µM): 64.3% | viability, T/C [25]: 64.7% | viability, T/C [26]: 48.2% | viability, T/C (second compound 10 µM, first compound 0.000316 µM): 55.1% | viability, T/C (second compound 10 µM, first compound 0.001 µM): 59.4% | viability, T/C (second compound 10 µM, first compound 0.00316 µM): 58.8% | viability, T/C (second compound 10 µM, first compound 0.01 µM): 63.4% | viability, T/C [31]: 46.5% | viability, T/C [32]: 31.2%

From PubChem BioAssay AID1963985 (Molecular Pharmacology Branch, DTP, NCI, 2024)
